From patent publication US9617264B2, “2,7-diazaspiro[3.5]nonane compounds” (REMYND NV, priority 2014, dated 2017)

Assays:
INS-1E cells = experiment: Cytokine-induced apoptosis (caspase-3/7 activation, Caspase-Glo 3/7) in INS-1E rat insulinoma cells; type: cell-based; conditions: cytokine mix (IFN-γ, IL-1, TNF-α), 24 hours, caspase 3/7 activity, read-out: CYT EC50
Description: The INS-1E cell line, a rat insulinoma cell line, has been characterized extensively. INS-1E cells respond to glucose by secreting insulin and, unlike most other immortalized n-cell lines, they do this in a consistent manner over time. The cells are sensitive to hyperglycemia-, free fatty acid (FFA)-, and cytokine-induced stress. Prolonged stress ultimately leads to induction of apoptotic pathways and, if stress is not counter-acted, to apoptosis. Caspase-3 and -7 play a central role downstream where various apoptotic pathways merge. As such, activation (i.e. cleavage) of these caspases forms a relevant primary read-out to evaluate protective activity of compounds against stress-induced apoptosis.
To evaluate the efficacy of different compounds to prevent induction of apoptosis, an in vitro screen was developed in which INS-1E cells were exposed to a cytokine mix (IFN-γ, 5 ng/ml; IL-1, 20 pg/ml; TNF-α, 0.25 ng/ml). The degree of induction of apoptosis was evaluated using a substrate for cleaved caspase-3 and -7, i.e. a proluminescent caspase-3/7 DEVD aminoluciferin substrate with a thermostable luciferase (Caspase-Glo® 3/7 assay; Promega, cat. G8092).
On day 0, INS-1E cells were plated in a white-walled 96-well microplate (Greiner, cat. 655098) at 20,000 cells per well in 100 μl complete medium (RPMI containing 11 mM glucose supplemented with 5% FCS, 100 IU/ml penicillin, 100 μg/ml streptomycin, 10 mM HEPES, 1 mM Sodium Pyruvate and 50 μM 2-Mercapto-ethanol). On day 2, 100 μl medium containing cytokines and compound dissolved in DMSO was added to the cells. Wells without cytokines containing DMSO and wells with cytokines and DMSO were included to evaluate the degree of caspase 3/7 activation by the cytokine mix. After 24 hours exposure to cytokines and/or compound, Caspase-Glo® 3/7 reagent was added to the cells and caspase activity was determined by measuring luminescence.
To evaluate compound efficacy, the “toxicity window” was calculated by subtracting caspase activity of wells without stressor from activity of wells with stressor but without compound. The amount of caspase activity in the latter wells was normalized to 1 and used as reference. Subsequently, caspase activity in the wells with stressor and varying concentrations of compound was calculated relative to the wells without compound. Plotting caspase activity vs the log 10 of the concentration of compound permitted calculation of the EC50 values for the compounds which typically lied between 0.0001 and 10 μM. Compounds with an EC50<10 μM were considered active.

M17_3SYN cells = experiment: Paraquat-induced cytotoxicity (LDH) in α-synuclein over-expressing M17_3SYN neuroblastoma cells; type: cell-based; conditions: Homo sapiens, Neuroblastoma cell, 48 h, 6 mM Paraquat, 2 days, LDH toxicity inhibition, read-out: SYN EC50
Description: A α-synuclein expression plasmid was constructed by subcloning the NcoI/XhoI fragment from 212T-SYN(WT) (Griffioen et al., Biochem Biophys Acta (2006) 1762(3):312-318) containing the cDNA of human wild type α-synuclein correspondingly into a standard mammalian expression vector pcDNA3.1 resulting in plasmid pcDNA3.1-SYNwt. Plasmids pcDNA3.1 and pcDNA3.1-SYNwt were transfected into human neuroblastoma cells (BE-M17; ATCC No. CRL-2267™) using lipofectamine reagent and subsequently, independent clonal cell lines with the plasmids stably integrated into the genome were selected by antibiotic resistance selection (Geneticin (G418)), resulting in cell lines M17.pcDNA3 and M17_3SYN. Overexpression of α-synuclein in the M17_3SYN cell line was confirmed by Western blot analysis.
Due to the high levels of α-synuclein, M17_3SYN cells were sensitive to paraquat, a well-known risk factor Parkinson's disease and of synuclein-dependent neuronal degeneration. Cytotoxicity of cells was measured by quantification of lactate dehydrogenase (LDH) levels. In dead cells, LDH leaked out of the cells into the medium due to a loss of plasma-membrane integrity.
Three days preceding the experiment, primary pre-cultures of M17.pcDNA3 (as possible control) and M17_3SYN cells were prepared, starting from a stock culture, at a density of 20.000-40.000 cells/cm2 in culture medium (Opti-MEM® Reduced Serum Medium with Phenol Red (Invitrogen, Cat. 31985-047) supplemented with 10% FCS, 1 mM sodium pyruvate, 1×NEAA, 500 μg/ml G418 and 0.5× antibiotic/antimycotic (ABAM)). 3 days later these primary pre-cultures were used as a starting point to make secondary pre-cultures at a density of 50.000-100.000 cells/cm^2. At the day of the experiment these secondary precultures were diluted to ˜0.5·10^6 cells/ml in detection medium (Opti-MEM® Reduced-Serum Medium without Phenol Red (Invitrogen, Cat. 11085-021) supplemented with 10% FCS, 1 mM sodium pyruvate, 1×NEAA, 500 μg/ml G418 and 0.5×ABAM) and 60 μL of this suspension was dispensed per well into a 96-well microtiter plate. After 3 hours of incubation at 37° C./5% CO2 an equal volume of detection medium containing a final concentration of 6 mM Paraquat was added and subsequently incubated for 2 days at 37° C./5% CO2. Then LDH activity was determined using the Promega Cytotox 96 Non-Radioactive cytotoxicity assay (Promega, Cat. G1780), according to the manufacturer's instructions. Cytotoxicity was defined as the ratio of LDH relative to the total LDH in the cells and supernatant.
The assay described above using the M17_3SYN cell line allowed screening compounds for their ability to decrease cytotoxicity in PQ-challenged cells. Compounds of the invention were tested for their ability to decrease toxicity at different concentrations, ranging from low non-effective concentrations to high effective concentrations. Afterwards, a dose-dependent inhibition curve was used to calculate the EC50. A compound was considered to be active in this test when it inhibited toxicity by more than 20% relative to untreated M17_3SYN cells at a concentration of […] or lower.

| EC50 (INS-1E cells) | SMILES | EC50 (M17_3SYN cells) |
| --- | --- | --- |
| 0.503 µM | COc1ccc(S(=O)(=O)N2CCC3(CC2)CN(C(=O)C2CCOc4ccccc42)C3)cc1 (centres unmarked) [Cmpd021, Chroman-4-yl(7-((4-methoxyphenyl)sulfonyl)-2,7-diazaspiro[3.5]nonan-2-yl)methanone] | – |
| 0.317 µM | COc1ccc(S(=O)(=O)N2CCC3(CC2)CN(c2nc(-c4cnccn4)ns2)C3)cc1 [Cmpd038, 5-(7-((4-Methoxyphenyl)sulfonyl)-2,7-diazaspiro[3.5]nonan-2-yl)-3-(pyrazin-2-yl)-1,2,4-thiadiazole] | – |
| 0.1 µM | COc1ccc(S(=O)(=O)N2CCC3(CC2)CN(c2nc(-c4ccc(Cl)cc4)ns2)C3)cc1 [Cmpd039, 3-(4-Chlorophenyl)-5-(7-((4-methoxyphenyl)sulfonyl)-2,7-diazaspiro[3.5]nonan-2-yl)-1,2,4-thiadiazole] | – |
| 0.041 µM | CCOc1ccc(S(=O)(=O)N2CC3(CCN(S(=O)(=O)c4ccc(OC(F)F)cc4)CC3)C2)cc1 [Cmpd042, 7-((4-(Difluoromethoxy)phenyl)sulfonyl)-2-((4-ethoxyphenyl)sulfonyl)-2,7-diazaspiro[3.5]nonane] | – |
| 0.086 µM | O=S(=O)(c1ccc(OC(F)F)cc1)N1CCC2(CC1)CN(S(=O)(=O)c1ccc(Cl)cc1)C2 [Cmpd043, 2-((4-Chlorophenyl)sulfonyl)-7-((4-(difluoromethoxy)phenyl)sulfonyl)-2,7-diazaspiro[3.5]nonane] | – |

Further lines, the compound ahead of its results:

| SMILES | EC50 (INS-1E cells) | EC50 (M17_3SYN cells) |
| --- | --- | --- |
| COc1ccc(S(=O)(=O)N2CCC3(CC2)CN(S(=O)(=O)c2ccc(OC(F)F)cc2)C3)cc1 [Cmpd003, 2-((4-(Difluoromethoxy)phenyl)sulfonyl)-7-((4-methoxyphenyl)sulfonyl)-2,7-diazaspiro[3.5]nonane] | 0.04 µM | – |
| COc1ccc(S(=O)(=O)N2CCC3(CC2)CN(C(=O)Cc2ccc(F)cc2)C3)cc1 [Cmpd006, 2-(4-Fluorophenyl)-1-(7-((4-methoxyphenyl)sulfonyl)-2,7-diazaspiro[3.5]nonan-2-yl)ethanone] | 0.178 µM | – |
| COc1ccc(S(=O)(=O)N2CCC3(CC2)CN(C(=O)Cc2ccccc2)C3)cc1 [Cmpd010, 1-(7-((4-Methoxyphenyl)sulfonyl)-2,7-diazaspiro[3.5]nonan-2-yl)-2-phenylethanone] | 0.178 µM | – |
| O=S(=O)(c1ccc(OC(F)F)cc1)N1CCC2(CC1)CN(c1nc(Cc3ccc(F)cc3)ns1)C2 [Cmpd085, 5-(7-((4-(Difluoromethoxy)phenyl)sulfonyl)-2,7-diazaspiro[3.5]nonan-2-yl)-3-(4-fluorobenzyl)-1,2,4-thiadiazole] | – | 0.541 µM |
| COc1ccc(F)cc1S(=O)(=O)N1CCC2(CC1)CN(c1nc(Cc3ccc(F)cc3)ns1)C2 [Cmpd086, 5-(7-((5-Fluoro-2-methoxyphenyl)sulfonyl)-2,7-diazaspiro[3.5]nonan-2-yl)-3-(4-fluorobenzyl)-1,2,4-thiadiazole] | – | 0.3 µM |
| Cn1cc(S(=O)(=O)N2CCC3(CC2)CN(c2nc(Cc4ccc(F)cc4)ns2)C3)cn1 [Cmpd090, 3-(4-Fluorobenzyl)-5-(7-((1-methyl-1H-pyrazol-4-yl)sulfonyl)-2,7-diazaspiro[3.5]nonan-2-yl)-1,2,4-thiadiazole] | – | 0.285 µM |
| Cc1ccc(S(=O)(=O)N2CCC3(CC2)CN(c2nc(Cc4ccc(F)cc4)ns2)C3)s1 [Cmpd095, 3-(4-Fluorobenzyl)-5-(7-((5-methylthiophen-2-yl)sulfonyl)-2,7-diazaspiro[3.5]nonan-2-yl)-1,2,4-thiadiazole] | – | 0.377 µM |
| O=S(=O)(CC1CCCCC1)N1CCC2(CC1)CN(c1nc(Cc3ccc(F)cc3)ns1)C2 [Cmpd097, 5-(7-((Cyclohexylmethyl)sulfonyl)-2,7-diazaspiro[3.5]nonan-2-yl)-3-(4-fluorobenzyl)-1,2,4-thiadiazole] | – | 0.19 µM |
| O=S(=O)(N1CCOCC1)N1CCC2(CC1)CN(c1nc(Cc3ccc(F)cc3)ns1)C2 [Cmpd098, 4-((2-(3-(4-Fluorobenzyl)-1,2,4-thiadiazol-5-yl)-2,7-diazaspiro[3.5]nonan-7-yl)sulfonyl)morpholine] | – | 1.19 µM |
